Reference: ChEMBL document CHEMBL1132706 (J Med Chem, 1999)
pEC50, pIC50: −log10 of the molar value.

Key:
[1] = target: T1, Human immunodeficiency virus type 1 integrase (Human immunodeficiency virus 1, UniProt Q7ZJM1)
Description: Inhibition of HIV-1 integrase by radiolabeled oligonucleotide-based assay integration

[2] = target: T1, Human immunodeficiency virus type 1 integrase; remark: listed apart in the source
Description: Compound was evaluated for the inhibitory concentration against HIV-1 integrase by radiolabeled oligonucleotide-based assay 3''-processing

[3] = tested on: CEM-SS; experiment: Compound was evaluated for the cytoprotection of CEM-SS cells by XTT cytoprotection assay through the NCI AIDS Screen; type: functional, cell-based; conditions: Homo sapiens
[4] = tested on: CEM-SS; experiment: Compound was evaluated for the cytoprotection of CEM-SS cells by XTT cytoprotection assay through the NCI AIDS Screen; Not reached due to cytotoxicity; type: functional, cell-based, Homo sapiens
[5] = tested on: CEM-SS; experiment: Compound was evaluated for the cytoprotection fo CEM-SS cells by XTT cytoprotection assay through the NCI AIDS Screen; type: functional, cell-based; conditions: Homo sapiens
[6] = tested on: CEM-SS; experiment: Compound was evaluated for the effect of Order of Addition on Cytoprotection against HIV1-RF at dilution 100, Add at infection; type: functional, Homo sapiens
[7] = tested on: CEM-SS; experiment: Compound was evaluated for the effect of Order of Addition on Cytoprotection against HIV1-RF at dilution 100, Pretreat and add 1 uM; type: functional, Homo sapiens
[8] = tested on: CEM-SS; experiment: Compound was evaluated for the effect of Order of Addition on Cytoprotection against HIV1-RF at dilution 100, Pretreat and add 10 uM; type: functional, Homo sapiens
[9] = tested on: CEM-SS; experiment: Compound was evaluated for the effect of Order of Addition on Cytoprotection against HIV1-RF at dilution 100, Pretreat with 100 uM; type: functional, Homo sapiens
[10] = tested on: CEM-SS; experiment: Compound was evaluated for the effect of Order of Addition on Cytoprotection against HIV1-RF at dilution 1000, Add at infection; type: functional, Homo sapiens
[11] = tested on: CEM-SS; experiment: Compound was evaluated for the effect of Order of Addition on Cytoprotection against HIV1-RF at dilution 1000, Pretreat and add 1 uM; type: functional, Homo sapiens
[12] = tested on: CEM-SS; experiment: Compound was evaluated for the effect of Order of Addition on Cytoprotection against HIV1-RF at dilution 1000, Pretreat and add 10 uM; type: functional, Homo sapiens
[13] = tested on: CEM-SS; experiment: Compound was evaluated for the effect of Order of Addition on Cytoprotection against HIV1-RF at dilution 1000, Pretreat with 100 uM; type: functional, Homo sapiens
[14] = tested on: CEM-SS; experiment: Compound was evaluated for the effect of Order of Addition on Cytoprotection against HIV1-RF at dilution 333, Add at infection; type: functional, Homo sapiens
[15] = tested on: CEM-SS; experiment: Compound was evaluated for the effect of Order of Addition on Cytoprotection against HIV1-RF at dilution 333, Pretreat and add 10 uM; type: functional, Homo sapiens
[16] = tested on: CEM-SS; experiment: Compound was evaluated for the effect of Order of Addition on Cytoprotection against HIV1-RF at dilution 333,Pretreat and add 1 uM; type: functional, Homo sapiens
[17] = tested on: CEM-SS; experiment: Concentration of compound required to protect 50% of CEM-SS cells against retroviral cytopathic effects of HIV-RF on 3rd day at dil 1:100; type: functional, cell-based; conditions: Homo sapiens
[18] = tested on: CEM-SS; experiment: Concentration of compound required to protect 50% of CEM-SS cells against retroviral cytopathic effects of HIV-RF on 3rd day at dil 1:200; type: functional, cell-based; conditions: Homo sapiens
[19] = tested on: CEM-SS; experiment: Concentration of compound required to protect 50% of CEM-SS cells against retroviral cytopathic effects of HIV-RF on 3rd day at dil 1:50; type: functional, cell-based; conditions: Homo sapiens
[20] = tested on: CEM-SS; experiment: Concentration of compound required to protect 50% of CEM-SS cells against retroviral cytopathic effects of HIV-RF on 6th day at dil 1:100; type: functional, cell-based; conditions: Homo sapiens
[21] = tested on: CEM-SS; experiment: Concentration of compound required to protect 50% of CEM-SS cells against retroviral cytopathic effects of HIV-RF on 6th day at dil 1:200; type: functional, cell-based; conditions: Homo sapiens
[22] = tested on: CEM-SS; experiment: Concentration of compound required to protect 50% of CEM-SS cells against retroviral cytopathic effects of HIV-RF on 6th day at dil 1:400; type: functional, cell-based; conditions: Homo sapiens
[23] = tested on: CEM-SS; experiment: Concentration of compound required to protect 50% of CEM-SS cells against retroviral cytopathic effects of HIV-RF on 6th day at dil 1:50; type: functional, cell-based; conditions: Homo sapiens
[24] = tested on: CEM-SS; experiment: Concentration of compound required to protect 50% of CEM-SS cells against retroviral cytopathic effects of HIV-RF on 9th day at dil 1:200; type: functional, cell-based; conditions: Homo sapiens
[25] = tested on: CEM-SS; experiment: Concentration of compound required to protect 50% of CEM-SS cells against retroviral cytopathic effects of HIV-RF on 9th day at dil 1:400; type: functional, cell-based; conditions: Homo sapiens
[26] = tested on: CEM-SS; experiment: Concentration of compound required to protect 50% of CEM-SS cells against retroviral cytopathic effects of HIV-RF on 9th day at dil 1:50; type: functional, cell-based; conditions: Homo sapiens
[27] = Compound was evaluated for the relative inhibition of Viral infection in MAGI cells at concentration 100 mM, using assay 1; type: functional, Homo sapiens
[28] = Compound was evaluated for the relative inhibition of Viral infection in MAGI cells at concentration 10 mM, using assay 1; type: functional, Homo sapiens
[29] = Compound was evaluated for the relative inhibition of Viral infection in MAGI cells at concentration 10mM, using assay 2; type: functional, Homo sapiens
[30] = Compound was evaluated for the relative inhibition of Viral infection in MAGI cells at concentration 10 mM, using assay 3; type: functional, Homo sapiens
[31] = Compound was evaluated for the relative inhibition of Viral infection in MAGI cells at concentration 1 mM, using assay 1; type: functional, Homo sapiens
[32] = tested on: MT4; experiment: Concentration of compound required to protect 50% of MT-4 cells against retroviral cytopathic effects of HIV-2 (ROD); type: functional, cell-based; conditions: Homo sapiens
[33] = tested on: MT4; experiment: Concentration of compound required to reduce MT-4 cell viability by 50%; type: functional, cell-based; conditions: Homo sapiens
[34] = tested on: CEM-SS; experiment: Concentration of compound required to protect 50% of CEM-SS cells against retroviral cytopathic effects of HIV-RF on 9th day at dil 1:100; type: functional, cell-based; conditions: Homo sapiens
[35] = tested on: MT4; experiment: Concentration of compound required to protect 50% of MT-4 cells against retroviral cytopathic effects of HIV-1 ([…]); type: functional, cell-based; conditions: Homo sapiens
[36] = Compound was evaluated for the relative Viral infection in MAGI cells at concentration 100 mM, using assay 2
[37] = Compound was evaluated for the relative inhibition of Viral infection in MAGI cells at concentration 0.1 uM, using assay 3
[38] = tested on: CEM-SS; experiment: Compound was evaluated for the effect of Order of Addition on Cytoprotection against HIV1-RF at dilution 333, Pretreat with 100 uM

T1 sequence (Q7ZJM1 whole entry): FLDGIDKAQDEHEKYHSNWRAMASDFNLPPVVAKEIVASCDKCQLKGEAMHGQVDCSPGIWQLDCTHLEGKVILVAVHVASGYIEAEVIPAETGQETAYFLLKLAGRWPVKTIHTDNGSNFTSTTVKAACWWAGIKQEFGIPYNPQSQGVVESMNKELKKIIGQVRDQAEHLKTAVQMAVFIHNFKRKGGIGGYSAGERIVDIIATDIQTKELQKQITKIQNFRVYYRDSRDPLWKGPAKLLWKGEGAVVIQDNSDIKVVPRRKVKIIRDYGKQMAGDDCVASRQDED

## COC(=O)[C@@H](CNC(=O)/C=C/c1ccc(OC(C)=O)c(OC(C)=O)c1)NC(=O)/C=C/c1ccc(OC(C)=O)c(OC(C)=O)c1
[1]
  pIC50: 5.00
[2]
  pIC50: 4.96

## CC(=O)Oc1ccc(/C=C/C(=O)O[C@H]2CCCC[C@@H]2OC(=O)/C=C/c2ccc(OC(C)=O)c(OC(C)=O)c2)cc1OC(C)=O
[3]
  pIC50: 5.24
[1]
  pIC50: < 3.48
[2]
  pIC50: < 3.48

## O=C(/C=C/c1ccc(O)c(O)c1)OCC(OC(=O)/C=C/c1ccc(O)c(O)c1)C(=O)O (centres undefined)
[1]
  pIC50: 5.77
[2]
  pIC50: 5.38

## CC(=O)Oc1ccc(/C=C/C(=O)OCC(OC(=O)/C=C/c2ccc(OC(C)=O)c(OC(C)=O)c2)C(=O)O)cc1OC(C)=O (centres undefined)
[1]
  pIC50: 5.55
[2]
  pIC50: 5.68

## CC(=O)Oc1ccc(/C=C/C(=O)OCCCOC(=O)/C=C/c2ccc(OC(C)=O)c(OC(C)=O)c2)cc1OC(C)=O
[1]
  pIC50: < 3.48
[2]
  pIC50: < 3.48

## COC(=O)[C@@H](COC(=O)/C=C/c1ccc(OC(C)=O)c(OC(C)=O)c1)NC(=O)/C=C/c1ccc(OC(C)=O)c(OC(C)=O)c1
[1]
  pIC50: 5.49
[2]
  pIC50: 5.55

## COc1ccc(/C=C/C(=O)NC[C@@H](NC(=O)/C=C/c2ccc(OC)c(OC)c2)C(=O)O)cc1OC
[1]
  pIC50: < 3.00
[2]
  pIC50: < 3.00

## O=C(/C=C/c1ccc(O)c(O)c1)OCCCOC(=O)/C=C/c1ccc(O)c(O)c1
[4]
  EC50: Not reached
[5]
  pIC50: 4.86
[1]
  pIC50: 5.12
[2]
  pIC50: 4.56

## COC(=O)[C@H](COC(=O)/C=C/c1ccc(OC(C)=O)c(OC(C)=O)c1)NC(=O)/C=C/c1ccc(OC(C)=O)c(OC(C)=O)c1
[1]
  pIC50: 5.42
[2]
  pIC50: 5.55

## O=C(/C=C/c1ccc(O)c(O)c1)O[C@H]1CCCC[C@@H]1OC(=O)/C=C/c1ccc(O)c(O)c1
[4]
  EC50: Not reached
[3]
  pIC50: 5.25
[1]
  pIC50: 5.12
[2]
  pIC50: < 4.61

## CC(=O)Oc1ccc(/C=C/C(=O)O[C@H](C(=O)O)[C@H](OC(=O)/C=C/c2ccc(OC(C)=O)c(OC(C)=O)c2)C(=O)O)cc1OC(C)=O
[6]
  Control: 141%
[7]
  Control: 100%
[8]
  Control: 149%
[9]
  Control: 120%
[10]
  Control: 60%
[11]
  Control: 17%
[12]
  Control: 38%
[13]
  Control: 51%
[14]
  Control: 81%
[15]
  Control: 39%
[16]
  Control: 57%
[17]
  pEC50: < 4.30
[18]
  pEC50: < 4.30
[19]
  pEC50: < 4.30
[20]
  pEC50: < 4.30
[21]
  pEC50: 4.65
[22]
  pEC50: 4.71
[23]
  pEC50: < 4.30
[24]
  pEC50: < 4.30
[25]
  pEC50: 4.53
[26]
  pEC50: < 4.30
[27]
  relative infection: 6%
[28]
  relative infection: 88%
[29]
  relative infection: 76%
[30]
  relative infection: 55%
[31]
  relative infection: 83%
[32]
  pEC50: 5.29
[33]
  pIC50: 4.22
[34]
  pEC50: < 4.30
[3]
  pEC50: 4.68
  pIC50: 4.64
[35]
  pEC50: 5.41
[1]
  pIC50: 5.34
[2]
  pIC50: 4.48
[36]
  relative infection: 5%
[37]
  relative infection: 91%
[38]
  Control: 163%

## COC(=O)C(COC(=O)/C=C/c1ccc(OC(C)=O)c(OC(C)=O)c1)NC(C)=O (centres undefined)
[1]
  pIC50: < 3.48
[2]
  pIC50: < 3.48
